# Values joined by “and” are separate entries in the source; they are usually repeats but may differ in a detail not shown here. Identical values can stand only once. Inconclusive results and toxic doses are left out. Numbered stars: 1 amine (or outer) side, 2 acyl side, 3 side chain; on linkers, the order of the positions; unused ones are H or OH. Peptide text beside a SMILES is read from it. γGlu = O=C(O)[CH](CCC(=O)[*:2])N[*:1]
# Tested on: BDF1 mice, B16 melanoma ip, median survival T/C
# Test: NCI In Vivo Anticancer Drug Screen. Data for tumor model B16 Melanoma (intraperitoneal) in B6D2F1 (BDF1) mice
# Conditions: endpoint: median survival time, higher = longer survival
# Summary of the method: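 Transplantable tumor model; survival or tumor size measured; reported as T/C, treated over vehicle control.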
# [1] = dose: 6.25 mg/kg/injection, schedule: Q01DX009 (ip), vehicle: saline with Tween-80
# [2] = dose: 6.25 mg/kg/injection, schedule: Q01DX009 (ip), vehicle: saline
# [3] = dose: 50.0 mg/kg/injection, schedule: Q01DX009 (ip), vehicle: Klucel (hydroxypropylcellulose) (HPC)
# [4] = dose: 100.0 mg/kg/injection, schedule: Q01DX009 (ip), vehicle: Klucel (hydroxypropylcellulose) (HPC)
# [5] = dose: 200.0 mg/kg/injection, schedule: Q01DX009 (ip), vehicle: Klucel (hydroxypropylcellulose) (HPC)
# [6] = dose: 100.0 mg/kg/injection, schedule: Q01DX009 (ip), vehicle: saline with Tween-80
# [7] = dose: 200.0 mg/kg/injection, schedule: Q01DX009 (ip), vehicle: saline with Tween-80
# [8] = dose: 100.0 mg/kg/injection, schedule: Q04DX003 (ip), vehicle: saline with Tween-80
# [9] = dose: 200.0 mg/kg/injection, schedule: Q04DX003 (ip), vehicle: saline with Tween-80
# [10] = dose: 400.0 mg/kg/injection, schedule: Q04DX003 (ip), vehicle: saline with Tween-80
# [11] = dose: 25.0 mg/kg/injection, schedule: Q01DX009 (ip), vehicle: saline
# [12] = dose: 50.0 mg/kg/injection, schedule: Q01DX009 (ip), vehicle: saline
# [13] = dose: 100.0 mg/kg/injection, schedule: Q01DX009 (ip), vehicle: saline
# [14] = dose: 200.0 mg/kg/injection, schedule: Q01DX009 (ip), vehicle: saline
# [15] = dose: 400.0 mg/kg/injection, schedule: Q01DX009 (ip), vehicle: Klucel (hydroxypropylcellulose) (HPC)
# [16] = dose: 25.0 mg/kg/injection, schedule: Q01DX009 (ip), vehicle: Klucel (hydroxypropylcellulose) (HPC)
# [17] = dose: 12.5 mg/kg/injection, schedule: Q01DX009 (ip), vehicle: saline with Tween-80
# [18] = dose: 25.0 mg/kg/injection, schedule: Q01DX009 (ip), vehicle: saline with Tween-80
compound,measurement,setting,value
CCC[CH2][Sn](=[S])[CH2]CCC,T/C,"dose: 0.78 mg/kg/injection, schedule: Q01DX009 (ip), vehicle: saline",98 % of control
same,T/C,"dose: 1.56 mg/kg/injection, schedule: Q01DX009 (ip), vehicle: saline",102 % of control
same,T/C,"dose: 6.25 mg/kg/injection, schedule: Q01DX009 (ip), vehicle: other",97 % of control
same,T/C,[1],109 % of control
same,T/C,[2],107 % of control
same,T/C,"dose: 6.25 mg/kg/injection, schedule: Q04DX003 (ip), vehicle: other",105 % of control
C=CCN1CCC(C(=O)CC)(c2ccccc2)CC1,T/C,"dose: 10.0 mg/kg/injection, schedule: Q04DX003 (ip), vehicle: Klucel (hydroxypropylcellulose) (HPC)",111 % of control
same,T/C,"dose: 20.0 mg/kg/injection, schedule: Q04DX003 (ip), vehicle: Klucel (hydroxypropylcellulose) (HPC)",114 % of control
same,T/C,"dose: 40.0 mg/kg/injection, schedule: Q04DX003 (ip), vehicle: Klucel (hydroxypropylcellulose) (HPC)",114 % of control
O=C(CCN1CCCCCCC1)c1cccc([N+](=O)[O-])c1,T/C,[3],100 % of control
same,T/C,[4],97 % of control
CCCC(=O)c1ccc(OC)c(OC)c1,T/C,[3],86 % of control
same,T/C,[4],93 % of control
same,T/C,[5],96 % of control
NC(=O)C(Cl)(Cl)Cl,T/C,[6],105 % of control
same,T/C,[7],96 % of control
same,T/C,"dose: 400.0 mg/kg/injection, schedule: Q01DX009 (ip), vehicle: saline with Tween-80",98 % of control
NC(=O)c1nc2n(c1N)CCC2,T/C,[8],102 % of control
same,T/C,[9],105 % of control
same,T/C,[10],94 % of control
CSc1ccc2c(c1)N(CCCN(C)C)c1ccccc1S2,T/C,"dose: 3.12 mg/kg/injection, schedule: Q01DX009 (ip), vehicle: saline",100 % of control
same,T/C,[2],107 % of control and 112 % of control
same,T/C,"dose: 12.5 mg/kg/injection, schedule: Q01DX009 (ip), vehicle: saline",97 % of control and 124 % of control
same,T/C,[11],100 % of control and 124 % of control
CCC1C(=O)NC(=O)C1(C)c1ccccc1 (configuration not stated),T/C,[11],105 % of control
same,T/C,[12],108 % of control
same,T/C,[13],100 % of control
same,T/C,[14],100 % of control
Cc1ccc2c(Nc3ccc(NS(C)(=O)=O)cc3)c3ccccc3nc2c1C,T/C,"dose: 5.0 mg/kg/injection, schedule: Q01DX009 (ip), vehicle: saline sonified",90 % of control
same,T/C,"dose: 20.0 mg/kg/injection, schedule: Q01DX009 (ip), vehicle: other",117 % of control
same,T/C,"dose: 20.0 mg/kg/injection, schedule: Q01DX009 (ip), vehicle: saline with Tween-80",158 % of control
same,T/C,"dose: 40.0 mg/kg/injection, schedule: Q01DX009 (ip), vehicle: saline sonified",185 % of control
same,T/C,"dose: 40.0 mg/kg/injection, schedule: Q01DX009 (ip), vehicle: saline with Tween-80",163 % of control
same,T/C,[12],100 % of control
NC(CCC(=O)NC(CCC(=O)O)C(=O)NC(CCC(=O)O)C(=O)O)C(=O)O (stereo not drawn) (γGlu-Glu-Glu-OH; configuration not given here),T/C,[12],92 % of control
same,T/C,[13],96 % of control
same,T/C,[14],89 % of control
O=C1c2ccccc2-c2ncccc21,T/C,[3],100 % of control
same,T/C,[4],87 % of control
same,T/C,[5],96 % of control
CC#CCOCC1CN(c2ccccc2)C(=O)O1 (configuration not stated),T/C,[11],102 % of control
same,T/C,[12],97 % of control
same,T/C,[13],102 % of control
same,T/C,[8],97 % of control
same,T/C,[14],100 % of control
same,T/C,[9],94 % of control
same,T/C,"dose: 400.0 mg/kg/injection, schedule: Q01DX009 (ip), vehicle: saline",97 % of control
same,T/C,[10],94 % of control
O=C1NC(c2c(Cl)cccc2Cl)Nc2ccccc21 (configuration not stated),T/C,[4],96 % of control
same,T/C,[5],103 % of control
same,T/C,[15],90 % of control
CC(=O)[C@H]1CC[C@H]2[C@@H]3C[C@H](F)C4=CC(=O)CC[C@]4(C)[C@@]3(F)[C@@H](O)C[C@]12C,T/C,"dose: 12.5 mg/kg/injection, schedule: Q01DX009 (ip), vehicle: Klucel (hydroxypropylcellulose) (HPC)",95 % of control
same,T/C,[16],97 % of control
same,T/C,[3],104 % of control
same,T/C,[8],102 % of control
same,T/C,[9],110 % of control
same,T/C,[10],110 % of control
Cc1cc(NS(=O)(=O)c2ccc(N)cc2)no1,T/C,"dose: 100.0 mg/kg/injection, schedule: Q04DX003 (ip), vehicle: Klucel (hydroxypropylcellulose) (HPC)",97 % of control
same,T/C,"dose: 200.0 mg/kg/injection, schedule: Q04DX003 (ip), vehicle: Klucel (hydroxypropylcellulose) (HPC)",97 % of control
same,T/C,"dose: 400.0 mg/kg/injection, schedule: Q04DX003 (ip), vehicle: Klucel (hydroxypropylcellulose) (HPC)",93 % of control
Cc1ccc(NC(=O)Nc2ccc(Cl)c(Cl)c2)c(C)c1,T/C,[16],109 % of control
same,T/C,[3],103 % of control
same,T/C,[4],92 % of control
CC(=O)CC(=O)N1CCC(C)CC1,T/C,[4],110 % of control
same,T/C,[5],112 % of control
same,T/C,[15],115 % of control
COc1cccc2c1C(=N)c1c(O)c3c(c(O)c1C2=O)C[C@@](O)(C(C)=O)C[C@@H]3OC1CC(N)C(O)C(C)O1 (some centres not stated),T/C,"dose: 1.0 mg/kg/injection, schedule: Q01DX009 (ip), vehicle: water",177 % of control
same,T/C,"dose: 1.56 mg/kg/injection, schedule: Q01DX001 (ip), vehicle: water",163 % of control
same,T/C,"dose: 2.0 mg/kg/injection, schedule: Q01DX009 (ip), vehicle: water",205 % of control
same,T/C,"dose: 3.13 mg/kg/injection, schedule: Q01DX001 (ip), vehicle: water",159 % of control
same,T/C,"dose: 4.0 mg/kg/injection, schedule: Q01DX009 (ip), vehicle: water",201 % of control
same,T/C,"dose: 6.25 mg/kg/injection, schedule: Q01DX001 (ip), vehicle: water",166 % of control and 168 % of control and 185 % of control
same,T/C,"dose: 12.0 mg/kg/injection, schedule: Q01DX001 (ip), vehicle: water",94 % of control
same,T/C,"dose: 12.5 mg/kg/injection, schedule: Q01DX001 (ip), vehicle: water",164 % of control and 201 % of control
same,T/C,"dose: 20.0 mg/kg/injection, schedule: Q01DX001 (ip), vehicle: water",95 % of control
O=C1N=C(Oc2ccccc2)SC1=O,T/C,[17],101 % of control
same,T/C,[18],96 % of control
O=C(COc1ccc(Cl)cc1)NCCc1ccccc1,T/C,[4],93 % of control
same,T/C,[5],103 % of control
same,T/C,[15],90 % of control
CCCCCCCCCCCCCCCCCCCCCC(=O)Nc1ccn(C2OC(CO)C(O)C2O)c(=O)n1 (configuration not stated),T/C,[1],102 % of control
same,T/C,[17],102 % of control
same,T/C,[18],119 % of control
same,T/C,[7],163 % of control
COC(=O)c1ccccc1C=C(c1ccc([N+](=O)[O-])cc1)c1ccc([N+](=O)[O-])cc1,T/C,"dose: 50.0 mg/kg/injection, schedule: Q01DX009 (ip), vehicle: saline with Tween-80",97 % of control
same,T/C,[6],113 % of control
same,T/C,[7],91 % of control
NC1CC[N-]CC1.NC1CC[N-]CC1.NC1CC[N-]CC1.NC1CC[N-]CC1.[Cl][Rh][Cl],T/C,[1],103 % of control
same,T/C,[17],101 % of control
same,T/C,[18],93 % of control
CNc1ncnc2c1cnn2C,T/C,"dose: 10.0 mg/kg/injection, schedule: Q01DX009 (ip), vehicle: Klucel (hydroxypropylcellulose) (HPC)",97 % of control
same,T/C,"dose: 20.0 mg/kg/injection, schedule: Q01DX009 (ip), vehicle: Klucel (hydroxypropylcellulose) (HPC)",89 % of control
same,T/C,"dose: 40.0 mg/kg/injection, schedule: Q01DX009 (ip), vehicle: Klucel (hydroxypropylcellulose) (HPC)",89 % of control
N/C(=N\N=C\c1ccc(-c2ccccc2)cc1)N[N+](=O)[O-],T/C,[16],93 % of control
same,T/C,[3],90 % of control
same,T/C,[4],93 % of control
same,T/C,[5],86 % of control
CCCCCCCC(N)=O,T/C,[6],100 % of control
same,T/C,[7],106 % of control
C#CC1(OCC2CN(c3ccccc3)C(=O)O2)CCCCC1 (configuration not stated),T/C,[16],93 % of control
same,T/C,[3],95 % of control
same,T/C,[4],95 % of control
same,T/C,[8],97 % of control
same,T/C,[5],102 % of control
same,T/C,[9],102 % of control
same,T/C,[15],91 % of control
same,T/C,[10],100 % of control

# Source: PubChem BioAssay AID192 (DTP/NCI, 2004)
